{"source": "ChEMBL document CHEMBL3102722", "about": "“Diarylacylhydrazones: Clostridium-selective antibacterials with activity against stationary-phase cells” (Bioorg Med Chem Lett, 2014)", "key": {"Bacteroides fragilis": {"tested_on": "Bacteroides fragilis", "experiment": "Antibacterial activity against Bacteroides fragilis ATCC 25285 assessed as growth inhibition after 20 to 24 hrs", "type": "functional", "details": "NCTC 9343"}, "Staphylococcus aureus": {"tested_on": "Staphylococcus aureus", "experiment": "Antibacterial activity against Staphylococcus aureus 8325-4 assessed as growth inhibition after 20 to 24 hrs", "type": "functional"}, "Clostridium perfringens": {"tested_on": "Clostridium perfringens", "experiment": "Antibacterial activity against Clostridium perfringens ATCC 13124 assessed as growth inhibition after 20 to 24 hrs", "type": "functional"}, "[1]": {"tested_on": "Bacteroides thetaiotaomicron", "experiment": "Antibacterial activity against Bacteroides thetaiotaomicron ATCC 29148 assessed as growth inhibition after 20 to 24 hrs", "type": "functional"}, "Streptococcus mutans": {"tested_on": "Streptococcus mutans", "experiment": "Antibacterial activity against Streptococcus mutans ATCC 700610 assessed as growth inhibition after 20 to 24 hrs", "type": "functional"}, "Clostridioides difficile [2]": {"tested_on": "Clostridioides difficile", "experiment": "Antibacterial activity against Clostridium difficile CD196 assessed as growth inhibition after 20 to 24 hrs", "type": "functional"}, "Lacticaseibacillus casei": {"tested_on": "Lacticaseibacillus casei", "experiment": "Antibacterial activity against Lactobacillus casei ATCC 334 assessed as growth inhibition after 20 to 24 hrs", "type": "functional"}, "Clostridioides difficile [3]": {"tested_on": "Clostridioides difficile", "experiment": "Antibacterial activity against Clostridium difficile clinical isolate assessed as growth inhibition", "type": "functional"}, "Escherichia coli": {"tested_on": "Escherichia coli", "experiment": "Antibacterial activity against Escherichia coli ATCC 700927 assessed as growth inhibition after 20 to 24 hrs", "type": "functional"}, "Clostridioides difficile [4]": {"tested_on": "Clostridioides difficile", "experiment": "Antibacterial activity against stationary phase of Clostridium difficile CD196 assessed as cell killing at 1 to 20 X MIC after 3 to 6 hrs", "type": "functional"}, "[5]": {"tested_on": "Limosilactobacillus reuteri", "experiment": "Antibacterial activity against Lactobacillus reuteri ATCC 23272 assessed as growth inhibition after 20 to 24 hrs", "type": "functional"}, "Enterococcus faecalis": {"tested_on": "Enterococcus faecalis", "experiment": "Antibacterial activity against Enterococcus faecalis ATCC 47077 assessed as growth inhibition after 20 to 24 hrs", "type": "functional"}, "Bifidobacterium longum": {"tested_on": "Bifidobacterium longum", "experiment": "Antibacterial activity against Bifidobacterium longum ATCC BAA-999 assessed as growth inhibition after 20 to 24 hrs", "type": "functional"}, "FaDu": {"tested_on": "FaDu", "experiment": "Cytotoxicity against human FADU cells assessed as concentration required to decrease cell viability incubated for 24 hrs followed by compound washout measured after 18 hrs by resazurin dye-based assay"}, "[6]": {"experiment": "Cytotoxicity against human HepG2 cells assessed as concentration required to decrease cell viability incubated for 24 hrs followed by compound washout measured after 18 hrs by resazurin dye-based assay", "details": "read-out: Activity"}, "Clostridioides difficile [7]": {"tested_on": "Clostridioides difficile", "experiment": "Antibacterial activity against stationary phase of Clostridium difficile CD196 assessed as cell killing after 3 to 6 hrs", "type": "functional"}, "Clostridioides difficile [8]": {"tested_on": "Clostridioides difficile", "experiment": "Bactericidal activity against Clostridium difficile CD196 after 20 to 24 hrs", "type": "functional", "details": "read-out: MBC99.9"}, "Clostridioides difficile [9]": {"tested_on": "Clostridioides difficile", "experiment": "Antibacterial activity against Clostridium difficile 10463 clinical isolate assessed as growth inhibition after 20 to 24 hrs", "type": "functional"}, "Clostridioides difficile [10]": {"tested_on": "Clostridioides difficile", "experiment": "Antibacterial activity against Clostridium difficile VPI clinical isolate assessed as growth inhibition after 20 to 24 hrs", "type": "functional"}, "Clostridioides difficile [11]": {"tested_on": "Clostridioides difficile", "experiment": "Antibacterial activity against Clostridium difficile UK1 clinical isolate assessed as growth inhibition after 20 to 24 hrs", "type": "functional"}, "Clostridioides difficile [12]": {"tested_on": "Clostridioides difficile", "experiment": "Antibacterial activity against Clostridium difficile GC1 clinical isolate assessed as growth inhibition after 20 to 24 hrs", "type": "functional"}, "Clostridioides difficile [13]": {"tested_on": "Clostridioides difficile", "experiment": "Ratio of MBC99.9 to MIC for Clostridium difficile CD196", "type": "functional"}, "Clostridioides difficile [14]": {"tested_on": "Clostridioides difficile", "experiment": "Antibacterial activity against Clostridium difficile UK6 clinical isolate assessed as growth inhibition after 20 to 24 hrs", "type": "functional"}, "[15]": {"experiment": "Antibacterial activity against Clostridium difficile 630 clinical isolate assessed as growth inhibition after 20 to 24 hrs", "type": "functional, Clostridioides difficile 630", "details": "Clostridioides difficile"}}, "note": "Activity calls are given as the source filed them. The calls are words filed in the database; no cut-off is given here.", "data": [{"compound": "CCc1c(Cl)c(O)c(Cl)c(O)c1C(=O)O[C@H]1[C@H](O)[C@H](OC)[C@H](OC/C2=C\\C=C\\C[C@H](O)/C(C)=C/[C@H](CC)[C@@H](O[C@@H]3OC(C)(C)[C@@H](OC(=O)C(C)C)[C@H](O)[C@@H]3O)/C(C)=C/C(C)=C/C[C@@H]([C@@H](C)O)OC2=O)O[C@@H]1C", "note": "[FIDAXOMICIN]", "values": [{"measurement": "MIC", "setting": "Bacteroides fragilis", "value": "> 50", "unit": "µg/mL"}, {"measurement": "MIC", "setting": "Staphylococcus aureus", "value": 3.13, "unit": "µg/mL"}, {"measurement": "MIC", "setting": "Clostridium perfringens", "value": "≤ 0.0075", "unit": "µg/mL"}, {"measurement": "MIC", "setting": "[1]", "value": "> 50", "unit": "µg/mL"}, {"measurement": "MIC", "setting": "Streptococcus mutans", "value": 3.13, "unit": "µg/mL"}, {"measurement": "MIC", "setting": "Clostridioides difficile [2]", "value": 0.18, "unit": "µg/mL"}, {"measurement": "MIC", "setting": "Lacticaseibacillus casei", "value": "> 50", "unit": "µg/mL"}, {"measurement": "MIC90", "setting": "Clostridioides difficile [3]", "value": 0.008, "unit": "µg/mL"}, {"measurement": "MIC", "setting": "Escherichia coli", "value": "> 50", "unit": "µg/mL"}, {"measurement": "Activity", "setting": "Clostridioides difficile [4]", "value": "inactive"}, {"measurement": "MIC", "setting": "[5]", "value": "> 50", "unit": "µg/mL"}, {"measurement": "MIC", "setting": "Enterococcus faecalis", "value": 12.5, "unit": "µg/mL"}, {"measurement": "MIC", "setting": "Bifidobacterium longum", "value": "≤ 0.78", "unit": "µg/mL"}]}, {"compound": "Cc1cc(C(=O)N/N=C/c2c(O)ccc3ccccc23)[nH]n1", "values": [{"measurement": "MIC", "setting": "Bacteroides fragilis", "value": "> 50", "unit": "µg/mL"}, {"measurement": "MIC", "setting": "Staphylococcus aureus", "value": "> 50", "unit": "µg/mL"}, {"measurement": "MIC", "setting": "Clostridium perfringens", "value": "≤ 3.13", "unit": "µg/mL"}, {"measurement": "Activity", "setting": "FaDu", "value": "> 100", "unit": "µg/mL"}, {"measurement": "MIC", "setting": "[1]", "value": 25, "unit": "µg/mL"}, {"measurement": "MIC", "setting": "Streptococcus mutans", "value": "> 50", "unit": "µg/mL"}, {"measurement": "MIC", "setting": "Clostridioides difficile [2]", "value": 3.13, "unit": "µg/mL"}, {"measurement": "MCC at 24 h", "setting": "[6]", "value": "> 100", "unit": "µg/mL"}, {"measurement": "Activity", "setting": "Clostridioides difficile [7]", "value": "Dose-dependent effect"}, {"measurement": "MIC", "setting": "Lacticaseibacillus casei", "value": "> 50", "unit": "µg/mL"}, {"measurement": "MBC", "setting": "Clostridioides difficile [8]", "value": 3.13, "unit": "µg/mL"}, {"measurement": "MIC", "setting": "Escherichia coli", "value": "> 50", "unit": "µg/mL"}, {"measurement": "MIC", "setting": "[5]", "value": "> 50", "unit": "µg/mL"}, {"measurement": "MIC", "setting": "Enterococcus faecalis", "value": "> 50", "unit": "µg/mL"}, {"measurement": "MIC", "setting": "Bifidobacterium longum", "value": "> 50", "unit": "µg/mL"}]}, {"compound": "O=C(N/N=C/c1c(O)ccc2ccccc12)c1ccc(-c2ccccc2)cc1", "values": [{"measurement": "MIC", "setting": "Bacteroides fragilis", "value": "> 50", "unit": "µg/mL"}, {"measurement": "MIC", "setting": "Staphylococcus aureus", "value": "> 50", "unit": "µg/mL"}, {"measurement": "MIC", "setting": "Clostridium perfringens", "value": 3.13, "unit": "µg/mL"}, {"measurement": "MIC", "setting": "[1]", "value": "> 50", "unit": "µg/mL"}, {"measurement": "MIC", "setting": "Streptococcus mutans", "value": "> 50", "unit": "µg/mL"}, {"measurement": "MIC", "setting": "Clostridioides difficile [2]", "value": 1.56, "unit": "µg/mL"}, {"measurement": "MIC", "setting": "Clostridioides difficile [9]", "value": 3, "unit": "µg/mL"}, {"measurement": "MIC", "setting": "Clostridioides difficile [10]", "value": 3, "unit": "µg/mL"}, {"measurement": "MIC", "setting": "Lacticaseibacillus casei", "value": "> 50", "unit": "µg/mL"}, {"measurement": "MIC", "setting": "Clostridioides difficile [11]", "value": 1.5, "unit": "µg/mL"}, {"measurement": "MBC", "setting": "Clostridioides difficile [8]", "value": 3.13, "unit": "µg/mL"}, {"measurement": "MIC", "setting": "Clostridioides difficile [12]", "value": 1.5, "unit": "µg/mL"}, {"measurement": "Ratio", "setting": "Clostridioides difficile [13]", "value": 2}, {"measurement": "MIC", "setting": "Clostridioides difficile [14]", "value": 1.5, "unit": "µg/mL"}, {"measurement": "MIC", "setting": "Escherichia coli", "value": "> 50", "unit": "µg/mL"}, {"measurement": "MIC", "setting": "[15]", "value": 1.5, "unit": "µg/mL"}, {"measurement": "MIC", "setting": "[5]", "value": "> 50", "unit": "µg/mL"}, {"measurement": "MIC", "setting": "Enterococcus faecalis", "value": "> 50", "unit": "µg/mL"}, {"measurement": "MIC", "setting": "Bifidobacterium longum", "value": "> 50", "unit": "µg/mL"}]}]}
